pIC50: −log10 of the molar value. Counter-ions that a name gives are not always drawn.
Legend:
Human LOXL2 = biological target: T1, Human LOXL2 (Homo sapiens, UniProt Q9Y4K0); test: LOXL2 amine oxidase inhibition, peroxidase-coupled Amplex Red assay; type: biochemical; details: 30 min preincubation at 37° C., putrescine substrate
T1 sequence (Q9Y4K0 26-774): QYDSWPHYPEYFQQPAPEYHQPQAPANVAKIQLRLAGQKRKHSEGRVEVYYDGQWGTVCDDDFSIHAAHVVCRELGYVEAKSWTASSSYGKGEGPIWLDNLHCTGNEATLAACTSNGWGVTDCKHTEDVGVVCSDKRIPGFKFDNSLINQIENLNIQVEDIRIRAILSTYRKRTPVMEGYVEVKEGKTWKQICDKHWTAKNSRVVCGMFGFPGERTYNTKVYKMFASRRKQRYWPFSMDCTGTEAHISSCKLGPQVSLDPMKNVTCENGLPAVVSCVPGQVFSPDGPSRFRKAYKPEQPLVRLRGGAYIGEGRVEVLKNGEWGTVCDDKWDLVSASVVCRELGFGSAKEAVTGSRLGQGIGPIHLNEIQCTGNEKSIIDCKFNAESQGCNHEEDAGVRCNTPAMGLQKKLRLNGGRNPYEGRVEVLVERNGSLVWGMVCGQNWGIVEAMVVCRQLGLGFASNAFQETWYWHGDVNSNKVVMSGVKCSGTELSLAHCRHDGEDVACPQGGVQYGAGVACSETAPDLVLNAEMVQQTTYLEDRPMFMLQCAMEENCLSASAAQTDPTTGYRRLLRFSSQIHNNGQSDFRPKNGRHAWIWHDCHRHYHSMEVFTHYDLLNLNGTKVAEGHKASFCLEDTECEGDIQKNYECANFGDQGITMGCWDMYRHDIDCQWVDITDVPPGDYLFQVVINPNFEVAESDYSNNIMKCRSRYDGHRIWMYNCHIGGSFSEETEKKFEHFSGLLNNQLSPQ
Description: (§1) Method to Determine the Ability of Compounds of the Invention to Inhibit LOX and LOXL1-4 from Different Sources
(§2) Lysyl oxidase (LOX) is an extracellular copper dependent enzyme which oxidizes peptidyl lysine and hydroxylysine residues in collagen and lysine residues in elastin to produce peptidyl alpha-aminoadipic-delta-semialdehydes. […] There are five LOX family members; these are LOX, LOXL1, LOXL2, LOXL3 and LOXL4. LOX and LOXL family members can be acquired as recombinant active proteins from commercial sources, or extracted from animal tissues like bovine aorta, tendons, pig skin; or prepared from cell cultures. The inhibitory effects of the compounds of the present invention were tested against the given LOX-LOXL preparation using a high-throughput coupled colorimetric method (Holt A. and Palcic M., A peroxidase-coupled continuous absorbance plate-reader assay for flavin monoamine oxidases, copper-containing amine oxidases and related enzymes. Nat. Protoc. 2006; 1: 2498-2505). The assay was developed using either 384 or 96 well format. Briefly, in a standard 384 well plate assay 25 μL of a dilution of any of the isoenzymes and orthologues in 1.2 M urea, 50 mM sodium borate buffer (pH 8.2) were added into each well in the presence of 1 μM mofegiline and 0.5 mM pargyline (to inhibit SSAO and MAO-B and MAO-A, respectively). Test compounds were dissolved in DMSO and tested in a Concentration Response Curve (CRC) with 11 data points, typically in the micromolar or nanomolar range after incubation with the enzyme for 30 min at 37° C. Twenty five μL of a reaction mixture containing twice the KM concentration of putrescine (Sigma Aldrich, e.g. 20 mM for LOX, or 10 mM for LOXL2 and LOXL3), 120 μM Amplex Red (Sigma Aldrich) and 1.5 U/mL horseradish peroxidase (Sigma Aldrich) prepared in 1.2 M urea, 50 mM sodium borate buffer (pH 8.2) were then added to the corresponding wells. The above volumes were doubled in the case of 96 wells plate. The fluorescence (RFU) was read every 2.5 min for 30 min at a range of temperatures from 37° to 45° C., excitation 565 nm and emission 590 (Optima; BMG labtech). The slope of the kinetics for each well was calculated using MARS data analysis software (BMG labtech) and this value was used to deduce the IC50 value (Dotmatics).

Bovine LOX = biological target: T2, Bovine LOX (Bos taurus, UniProt P33072); test: LOX amine oxidase inhibition, peroxidase-coupled Amplex Red assay; type: biochemical; details: 30 min preincubation at 37° C., putrescine substrate
T2 sequence (P33072 170-418): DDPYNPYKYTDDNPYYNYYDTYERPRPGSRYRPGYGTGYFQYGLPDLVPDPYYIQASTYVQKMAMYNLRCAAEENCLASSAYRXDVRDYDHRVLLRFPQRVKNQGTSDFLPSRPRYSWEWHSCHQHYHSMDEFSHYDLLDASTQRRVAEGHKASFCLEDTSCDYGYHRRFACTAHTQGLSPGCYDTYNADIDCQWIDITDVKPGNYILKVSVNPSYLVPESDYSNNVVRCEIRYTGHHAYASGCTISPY
Description: as §1
as §2, with “Test compounds were dissolved in DMSO and tested in a Concentration Response Curve (CRC) with 11 data points, typically in the micromolar or nanomolar range after incubation with the enzyme for 30 min at 37° C.” left out

Row | Structure (SMILES) | pIC50 (Human LOXL2) | pIC50 (Bovine LOX)
1 | Cc1nn(C/C(F)=C/CN)c(C)c1-c1cccc(S(=O)(=O)N(C)C)c1 [Compound 33, (Z)-3-(1-(4-amino-2-fluorobut-2-en-1-yl)-3,5-dimethyl-1H-pyrazol-4-yl)-N,N-dimethylbenzenesulfonamide] | > 6.00 | > 5.00
2 | Cc1c(-c2cccc(S(=O)(=O)N(C)C)c2)c(Cl)nn1C/C(F)=C/CN [Compound 34, (Z)-3-(1-(4-amino-2-fluorobut-2-en-1-yl)-3-chloro-5-methyl-1H-pyrazol-4-yl)-N,N-dimethylbenzenesulfonamide hydrochloride] | > 6.00 | > 5.00
3 | Cc1nn(C/C(F)=C/CN)c(Cl)c1-c1cccc(S(=O)(=O)N(C)C)c1 [Compound 35, (Z)-3-(1-(4-amino-2-fluorobut-2-en-1-yl)-5-chloro-3-methyl-1H-pyrazol-4-yl)-N,N-dimethylbenzenesulfonamide hydrochloride] | > 6.00 | > 5.00
4 | Cc1c(Cc2ccc(S(=O)(=O)N(C)C)c(Cl)c2)c(C(C)O)nn1C/C(F)=C/CN (stereo not shown) [Compound 37, (Z)-4-((1-(4-amino-2-fluorobut-2-en-1-yl)-3-(1-hydroxyethyl)-5-methyl-1H-pyrazol-4-yl)methyl)-2-chloro-N,N-dimethylbenzenesulfonamide] | > 6.00 | > 5.00
5 | COCc1c(Cc2ccc(S(=O)(=O)N(C)C)c(Cl)c2)c(C)nn1C/C(F)=C/CN [Compound 38, (Z)-4-((1-(4-amino-2-fluorobut-2-en-1-yl)-5-(methoxymethyl)-3-methyl-1H-pyrazol-4-yl)methyl)-2-chloro-N,N-dimethylbenzenesulfonamide] | > 6.00 | > 5.00
6 | COCc1nn(C/C(F)=C/CN)c(C)c1Cc1ccc(S(=O)(=O)N(C)C)c(Cl)c1 [Compound 39, (Z)-4-((1-(4-amino-2-fluorobut-2-en-1-yl)-3-(methoxymethyl)-5-methyl-1H-pyrazol-4-yl)methyl)-2-chloro-N,N-dimethylbenzenesulfonamide] | > 6.00 | > 5.00
7 | Cc1nn(C/C(F)=C/CN)c(C)c1Oc1ccc(S(=O)(=O)N(C)C)c(Cl)c1 [Compound 40, (Z)-4-((1-(4-amino-2-fluorobut-2-en-1-yl)-3,5-dimethyl-1H-pyrazol-4-yl)oxy)-2-chloro-N,N-dimethylbenzenesulfonamide] | > 6.00 | > 5.00
8 | Cc1nn(C/C(F)=C/CN)c(Cl)c1Cc1ccc(S(=O)(=O)N(C)C)c(Cl)c1 [Compound 41, (Z)-4-((1-(4-amino-2-fluorobut-2-en-1-yl)-5-chloro-3-methyl-1H-pyrazol-4-yl)methyl)-2-chloro-N,N-dimethylbenzenesulfonamide] | > 6.00 | > 5.00
9 | Cc1c(Cc2ccc(S(=O)(=O)N(C)C)c(Cl)c2)c(Cl)nn1C/C(F)=C/CN [Compound 42, (Z)-4-((1-(4-amino-2-fluorobut-2-en-1-yl)-3-chloro-5-methyl-1H-pyrazol-4-yl)methyl)-2-chloro-N,N-dimethylbenzenesulfonamide] | > 6.00 | > 5.00
10 | Cc1nn(C/C(F)=C/CN)c(C(C)C)c1Cc1ccc(S(C)(=O)=O)nc1 [Compound 43, (Z)-3-fluoro-4-(5-isopropyl-3-methyl-4-((6-(methylsulfonyl)pyridin-3-yl)methyl)-1H-pyrazol-1-yl)but-2-en-1-amine dihydrochloride] | > 6.00 | > 5.00
11 | Cc1nn(C/C(F)=C/CN)c(C)c1Cc1ccc(S(=O)(=O)C(F)(F)F)cc1 [Compound 44, (Z)-4-(3,5-dimethyl-4-(4-((trifluoromethyl)sulfonyl)benzyl)-1H-pyrazol-1-yl)-3-fluorobut-2-en-1-amine hydrochloride] | > 6.00 | > 5.00

The next lines start with the values.

Row | pIC50 (Human LOXL2) | pIC50 (Bovine LOX) | Structure (SMILES)
12 | > 6.00 | > 5.00 | CNS(=O)(=O)c1ccc(Cc2c(C)nn(C/C(F)=C/CN)c2C)cc1OC(F)(F)F [Compound 45, (Z)-4-((1-(4-amino-2-fluorobut-2-en-1-yl)-3,5-dimethyl-1H-pyrazol-4-yl)methyl)-N-methyl-2-(trifluoromethoxy)benzenesulfonamide hydrochloride]
13 | > 6.00 | > 5.00 | Cc1nn(Cc2ccc(S(=O)(=O)N(C)C)c(Cl)c2)c(C)c1C/C(F)=C/CN [Compound 46, (Z)-4-((4-(4-amino-2-fluorobut-2-en-1-yl)-3,5-dimethyl-1H-pyrazol-1-yl)methyl)-2-chloro-N,N-dimethylbenzenesulfonamide hydrochloride]
14 | > 6.00 | > 5.00 | Cc1nn(Cc2ccc(S(=O)(=O)N(C)C)cc2Cl)c(C)c1C/C(F)=C/CN [Compound 47, (Z)-4-((4-(4-amino-2-fluorobut-2-en-1-yl)-3,5-dimethyl-1H-pyrazol-1-yl)methyl)-3-chloro-N,N-dimethylbenzenesulfonamide hydrochloride]
15 | > 6.00 | > 5.00 | Cc1nn(C/C(F)=C/CN)c(C)c1Cc1ccc(NS(C)(=O)=O)cc1 [Compound 48, (Z)—N-(4-((1-(4-amino-2-fluorobut-2-en-1-yl)-3,5-dimethyl-1H-pyrazol-4-yl)methyl)phenyl)methane-sulfonamide hydrochloride]
16 | > 6.00 | > 5.00 | Cc1nn(C/C(F)=C/CN)c(C)c1Cc1ccc(S(=O)(=O)C(C)C)c(Cl)c1 [Compound 49, (Z)-4-(4-(3-chloro-4-(isopropylsulfonyl)benzyl)-3,5-dimethyl-1H-pyrazol-1-yl)-3-fluorobut-2-en-1-amine hydrochloride]
17 | > 6.00 | > 5.00 | Cc1c(Cc2ccc(S(=O)(=O)N(C)C)cc2)c(C(C)(C)C)nn1C/C(F)=C/CN [Compound 50, (Z)-4-((1-(4-amino-2-fluorobut-2-en-1-yl)-3-(tert-butyl)-5-methyl-1H-pyrazol-4-yl)methyl)-N,N-dimethylbenzenesulfonamide hydrochloride]

Reference: patent US20200069648A1, “HALOALLYLAMINE PYRAZOLE DERIVATIVE INHIBITORS OF LYSYL OXIDASES AND USES THEREOF” (Pharmaxis Ltd., priority 2017, published 2020)
